Test system: neonatal cardiomyocytes
Assay: Myocyte calcium-contractility assay
Assay type: cell-based, rat
Settings: anaerobic chamber 16 hours in DMEM 1 mM glucose, reoxygenation two hours
Method: A. Isolation and Culture of Primary Neonate Myocytes.
The following materials are employed: • 10× Heart Dissection Solution (HDS) contains the following components (g/l) in tissue grade water: NaCl, 68; HEPES, 47.6; NaH2PO4, 2; Glucose, 10; KCl, 4; MgSO4, 1, pH adjusted to 7.4. Prior to filter sterilization of diluted (1×HDS) solution, 10 mg phenol red is added to each 500 milliliters of medium. • Transferrin and Bovine Insulin (available from Life Technologies) are resuspended at a concentration of 4 mg/ml in tissue culture grade water. • DMEM-F12—DMEM/F12, powder, 1:1 containing glutamine and pyridoxine hydrochloride (available from Life Technologies). To one liter equivalent of the powder is added 2.43 g of sodium bicarbonate and 10 ml of 100× Penicillin/Streptomycin in 950 ml of tissue culture grade water with stirring. The pH is adjusted to 7.2 with 1M HCl and volume adjusted to 1 liter. The solution is filter sterilized, followed by the addition of 2.5 ml of 4 mg/ml Transferrin, 250 μl 4 mg/ml Insulin and 30.7 mg of bromodeoxyuridine. • DMEM-F12-5% FBS is also prepared for pre-coating the tissue culture plates and initial suspension of the cardiomyocyte pellet. • Collagenase solution-57.1 mg of collagenase is resuspended in 140 ml 1×HDS.
Tissue culture ware is pre-coated with DMEM-F12-5% FBS by incubating […] per well of a 96-well plate and 0.5 ml per 24-well plate at 37° C.
Two-day old rat pups are removed from their mothers and placed in a sterile container. Pups are dipped quickly into 70% alcohol, then decapitated and the body placed in an empty sterile tissue culture dish. An incision is made starting at the neck and progressing towards the belly, cutting through the sternum. The heart is removed and placed in a tissue culture dishes containing 1×HDS. The atria are trimmed, and the remaining ventricles are placed into a separate tissue culture dish containing 1×HDS, where they are sectioned into 3-4 pieces each. Ventricles are then transferred to a sterile 250 ml glass flask and the 1×HDS is removed. Twenty milliliters of pre-warmed collagenase solution is added to the ventricles, followed by incubation at 37° C. with shaking. After 20 minutes, the collagenase solution is removed and replaced with 20 ml fresh pre-warmed collagenase. Incubation is continued for an additional 20 minutes. At the end of the incubation, any tissue chunks are allowed to settle prior to removing the collagenase (containing the isolated cardiomyocytes) from the disrupted tissue pieces. The isolated myocytes are added to a 50 ml Falcon tube containing 2 ml Fetal Bovine Serum (FBS). The remaining tissue pieces are subjected to a second digestion by adding 20 ml fresh pre-warmed collagenase and incubating as above for 20 minutes. This second digest is then centrifuged at 1000 rpm for 5 minutes (tabletop centrifuge). The resulting supernatant is discarded, and the cell pellet is suspended with 4 ml FBS. The resulting cell suspension is placed in the incubator at 37° C. This step is repeated several additional times to harvest additional material.
Percoll gradients are prepared by adding 2.5 ml of 10×HDS to 22.5 ml of Percoll (Life Technologies) with mixing (Percoll Stock). Top Gradient solution (11 ml Percoll Stock and 14 ml 1×HDS) and Bottom Gradient solution (13 ml Percoll Stock and 7 ml 1×HDS) are prepared. Four milliliters of the Top Gradient solution is transferred into 6×15 ml sterile Falcon tubes. Three milliliters of the Bottom Gradient solution is placed in each tube by inserting a serological pipette to the bottom of the tube and slowly adding the liquid.
All the digests (6) are pooled in one 50 ml Falcon tube and centrifuged on a tabletop centrifuge at 1000 rpm for 10 minutes. The supernatant is discarded, and the cell pellet is resuspended in 12 ml of 1×HDS. Two milliliters of the cell suspension is added to the top of each gradient. […]

| Compound | calcium transients (Fluo-4) in amounts indicative of ability guard against ischemic damage and maintain contractile function |
| --- | --- |
| COCOc1cc(C=Cc2ccc([N+](=O)[O-])cc2)cc(CC=C(C)C)c1OCOC [1,2-bis-methoxymethoxy-3-(3-methyl-but-2-enyl)-5-[2-(4-nitro-phenyl)-vinyl]-benzene] | presence of calcium transients |
| COCOc1cc(C=Cc2ccc([N+](=O)[O-])cc2)cc(OCOC)c1CC=C(C)C [1,3-bis-methoxymethoxy-2-(3-methyl-but-2-enyl)-5-[2-(4-nitro-phenyl)-vinyl]-benzene] | presence of calcium transients |
| Cc1c(C)c2c(c(COc3ccc(C=C4SC(=O)NC4=O)cc3)c1O)CCC(C)(CCCC(C)CCCC(C)CCCC(C)C)O2 (centres unmarked) [5-{4-[6-hydroxy-2,7,8-trimethyl-2-(4,8,12-trimethyl-tridecyl)-chroman-5-ylmethoxy]-benzylidene}-thiazolidine-2,4-dione] | presence of calcium transients |
| COC(=O)c1ccc(C=Cc2cc(I)c(O)c(OC)c2)cc1 [4-[2-(4-hydroxy-3-iodo-5-methoxy-phenyl)-vinyl]-benzoic acid methyl ester] | presence of calcium transients |
| COCOc1c(CC=C(C)CCC=C(C)C)cc(C=Cc2ccc(C#N)cc2)cc1OC [4-{2-[3-(3,7-dimethyl-octa-2,6-dienyl)-5-methoxy-4-methoxymethoxy-phenyl]-vinyl}-benzonitrile] | presence of calcium transients |
| COCOC(=O)c1cc(C=Cc2ccc(C(=O)OC)cc2)ccc1OCOC [5-[2-(4-methoxycarbonyl-phenyl)-vinyl]-2-methoxymethoxy-benzoic acid methoxymethyl ester] | presence of calcium transients |
| COC(=O)c1ccc(C=Cc2cc(C)c(O)c(C)c2)cc1 [4-[2-(4-hydroxy-3,5-dimethyl-phenyl)-vinyl]-benzoic acid methyl ester] | presence of calcium transients |
| O=C1NC(=O)C(=Cc2ccc(O)c(O)c2)S1 [5-(3,4-dihydroxy-benzylidene)-thiazolidine-2,4-dione] | presence of calcium transients |
| COCOc1cc(C=Cc2cc(OC)c(OCOC)c(OC)c2)cc(OCOC)c1CC=C(C)C [5-[2-(3,5-dimethoxy-4-methoxymethoxy-phenyl)-vinyl]-2-(3-methyl-but-2-enyl)-1,3-(bis-methoxymethoxy)-benzene] | presence of calcium transients |
| COCOc1cc(C=Cc2ccc([N+](=O)[O-])cc2)c(CC=C(C)C)c(OCOC)c1 [1,5-bis-methoxymethoxy-2-(3-methyl-but-2-enyl)-3-[2-(4-nitro-phenyl)-vinyl]-benzene] | presence of calcium transients |
| Oc1cc(-c2ccc(C=Cc3ccc(O)c(O)c3)cc2)n[nH]1 [4-{2-[4-(5-hydroxy-1H-pyrazol-3-yl)-phenyl]-vinyl}-benzene-1,2-diol] | presence of calcium transients |
| COC(=O)c1ccc(C=Cc2ccc3[nH]cnc3c2)cc1 [4-[2-(1H-benzoimidazol-5-yl)-vinyl]-benzoic acid methyl ester] | presence of calcium transients |
| Cc1cc(C=Cc2ccc([N+](=O)[O-])cc2)cc(C)c1O [2,6-dimethyl-4-[2-(4-nitro-phenyl)-vinyl]-phenol] | presence of calcium transients |
| COc1cc(C=Cc2ccc([N+](=O)[O-])cc2)cc(Br)c1O [2-bromo-6-methoxy-4-[2-(4-nitro-phenyl)-vinyl]-phenol] | presence of calcium transients |

— patent US7629375B2, “Cytoprotective compounds, pharmaceutical and cosmetic formulations, and methods” (Johnson & Johnson Consumer Companies, Inc., priority 2001, dated 2009)
